Publication PMC8037569, “Neuroprotective Effect of Aurantio-Obtusin, a Putative Vasopressin V1A Receptor Antagonist, on Transient Forebrain Ischemia Mice Model” (International Journal of Molecular Sciences, 2021)
Like-named read-outs stand apart in the source and are kept apart here.

What was measured:
[1] = system: vasopressin receptors; parameters: method as in PMID 32280914; conditions: at the tested concentrations; cited from earlier work
[2] = system: dopamine receptors; parameters: method as in PMID 32280914; conditions: at the tested concentrations; cited from earlier work
[3] = biological target: T1, hNK1R (Homo sapiens, UniProt P25103); assay: GPCR functional assay: intracellular Ca2+ mobilization in U373MG cells; format: cell-based; conditions: for % Inhibition (antagonist effect) of control agonist response, NK1 (h) / % Stimulation (agonist effect) of control agonist response, NK1 (h): 100 µM test compound; for % Inhibition (antagonist effect) of control agonist response, NK1 (h): control response to 1 nM [Sar9, Met(O2)11]-SP; for % Stimulation (agonist effect) of control agonist response, NK1 (h): control response to 30 nM [Sar9, Met(O2)11]-SP; for inhibition at 100 µM: U373 MG, read-out: % Inhibition (antagonist effect) of control agonist response, NK1 (h)
T1 construct: Human endogenous (U373MG cells); host or cells: U373MG
T1 sequence (P25103 whole entry): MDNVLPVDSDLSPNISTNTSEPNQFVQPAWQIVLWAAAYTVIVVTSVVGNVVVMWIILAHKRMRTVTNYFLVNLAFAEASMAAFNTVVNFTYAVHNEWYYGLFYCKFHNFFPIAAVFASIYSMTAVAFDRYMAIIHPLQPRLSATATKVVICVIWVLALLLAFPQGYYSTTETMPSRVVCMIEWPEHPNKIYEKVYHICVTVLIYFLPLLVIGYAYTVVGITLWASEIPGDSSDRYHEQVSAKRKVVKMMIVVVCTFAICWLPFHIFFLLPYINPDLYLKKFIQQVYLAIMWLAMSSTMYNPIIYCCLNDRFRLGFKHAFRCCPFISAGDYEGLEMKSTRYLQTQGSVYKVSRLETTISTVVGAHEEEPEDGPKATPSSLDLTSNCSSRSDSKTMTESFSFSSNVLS

[4] = biological target: T2, hV1AR (Homo sapiens, UniProt P37288); assay: GPCR functional assay: intracellular Ca2+ mobilization in transfected CHO cells; format: cell-based; conditions: for % Stimulation (agonist effect) of control agonist response, V1A (h): control response to 1 μM AVP
T2 construct: host or cells: CHO
T2 sequence (P37288 whole entry): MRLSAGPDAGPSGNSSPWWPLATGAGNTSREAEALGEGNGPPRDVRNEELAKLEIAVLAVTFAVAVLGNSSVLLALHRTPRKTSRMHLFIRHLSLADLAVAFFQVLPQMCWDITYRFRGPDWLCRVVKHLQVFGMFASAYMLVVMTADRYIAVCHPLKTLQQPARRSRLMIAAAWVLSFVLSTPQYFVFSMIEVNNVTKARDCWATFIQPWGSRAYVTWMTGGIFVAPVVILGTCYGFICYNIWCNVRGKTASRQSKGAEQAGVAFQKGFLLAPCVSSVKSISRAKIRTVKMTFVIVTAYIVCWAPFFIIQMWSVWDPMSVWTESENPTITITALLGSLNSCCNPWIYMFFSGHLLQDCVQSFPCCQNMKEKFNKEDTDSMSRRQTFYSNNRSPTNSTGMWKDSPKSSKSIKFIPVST

[5] = biological target: T3, hD3 receptor (Homo sapiens, UniProt P35462); assay: GPCR functional assay: cAMP modulation by HTRF in transfected CHO cells; format: cell-based; conditions: for % Stimulation (agonist effect) of control agonist response, D3 (h): 100 µM test compound, control response to 300 nM dopamine; for inhibition at 100 µM: CHO, read-out: % Inhibition (antagonist effect) of control agonist response, D3 (h)
T3 construct: host or cells: CHO
T3 sequence (P35462 whole entry): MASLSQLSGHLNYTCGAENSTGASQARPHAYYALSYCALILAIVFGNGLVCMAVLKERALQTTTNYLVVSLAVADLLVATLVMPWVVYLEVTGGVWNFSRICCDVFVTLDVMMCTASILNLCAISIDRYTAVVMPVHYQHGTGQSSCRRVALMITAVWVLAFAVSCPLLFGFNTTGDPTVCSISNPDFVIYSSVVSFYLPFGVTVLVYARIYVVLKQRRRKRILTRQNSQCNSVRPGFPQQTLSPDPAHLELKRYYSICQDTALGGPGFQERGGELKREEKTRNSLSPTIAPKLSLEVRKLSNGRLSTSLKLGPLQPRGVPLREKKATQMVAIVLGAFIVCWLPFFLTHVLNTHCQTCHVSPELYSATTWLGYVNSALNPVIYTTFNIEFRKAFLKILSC

[6] = biological target: T4, h5-HT1AR (Homo sapiens, UniProt P08908); assay: GPCR functional assay: intracellular Ca2+ mobilization in Ba/F3 cells; format: cell-based; conditions: for % Inhibition (antagonist effect) of control agonist response, 5-HT1A (h) / % Stimulation (agonist effect) of control agonist response, 5-HT1A (h): 100 µM test compound; for % Inhibition (antagonist effect) of control agonist response, 5-HT1A (h): control response to 30 nM serotonin; for % Stimulation (agonist effect) of control agonist response, 5-HT1A (h): control response to serotonin (2.5 μM); for inhibition at 100 µM: BaF3, read-out: % Inhibition (antagonist effect) of control agonist response, 5-HT1A (h)
T4 construct: host or cells: Ba/F3 (murine pro-B)
T4 sequence (P08908 1-422): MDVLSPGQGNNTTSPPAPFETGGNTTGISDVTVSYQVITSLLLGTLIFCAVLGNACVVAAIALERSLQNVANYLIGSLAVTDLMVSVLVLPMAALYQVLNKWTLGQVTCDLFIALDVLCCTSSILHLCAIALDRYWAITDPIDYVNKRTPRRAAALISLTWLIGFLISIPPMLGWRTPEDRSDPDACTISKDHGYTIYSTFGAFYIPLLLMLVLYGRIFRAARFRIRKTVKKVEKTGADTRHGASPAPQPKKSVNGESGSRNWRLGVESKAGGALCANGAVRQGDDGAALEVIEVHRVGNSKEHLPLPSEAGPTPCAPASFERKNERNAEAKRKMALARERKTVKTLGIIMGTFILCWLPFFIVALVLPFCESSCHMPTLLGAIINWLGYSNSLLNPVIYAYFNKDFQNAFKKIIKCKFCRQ

[7] = biological target: angiotensin-converting enzyme (ACE); parameters: method as in PMID 18803227; conditions: read-out: Inhibition of ACE activity, IC50; cited from earlier work
[8] = 100 µM test compound, control response to 10 nM AVP
[9] = CHO, read-out: % Inhibition (antagonist effect) of control agonist response, V1A (h)

## COc1cc(O)cc2c1C(=O)c1c(O)cc(C)cc1C2=O [questin]
[1]
  Activity on vasopressin receptors: remained inactive
[2]
  Activity on dopamine receptors: remained inactive

## O=C1c2cccc(O)c2C(=O)c2c(O)cc(CO)cc21 [aloe-emodin]
[1]
  Activity on vasopressin receptors: remained inactive
[2]
  Activity on dopamine receptors: remained inactive

## FC(F)(F)c1cc(CO[C@H]2CCCN[C@H]2c2ccccc2)cc(C(F)(F)F)c1 [L 733,060, reference compound]
[3]; standard antagonist, read-out: Antagonist effect IC50, NK1 (h)
  IC50: 0.00058 µM

## Cc1cc2c(c(O)c1O)C(=O)c1c(O)cc(O)cc1C2=O [7-hydroxyemodin]
[1]
  Activity on vasopressin receptors: showed activity
[2]
  Activity on dopamine receptors: showed activity

## Cc1cc(=O)c2c(O)c3c(OC4OC(CO)C(O)C(O)C4O)cc(O)cc3cc2o1 (stereo not drawn) [Cassiaside]
[4]; [8]
  % Inhibition (antagonist effect) of control agonist response, V1A (h): negligible
[4]; 100 µM test compound
  % Stimulation (agonist effect) of control agonist response, V1A (h): 1.40 ± 2.83%
[4]; [9]
  inhibition at 100 µM: -9.9%
[5]
  % Stimulation (agonist effect) of control agonist response, D3 (h): 14.75 ± 1.20%
  inhibition at 100 µM: -5.05%
[6]
  % Inhibition (antagonist effect) of control agonist response, 5-HT1A (h): negligible
  % Stimulation (agonist effect) of control agonist response, 5-HT1A (h): 1.75 ± 0.07%
  inhibition at 100 µM: -13.4%
[3]
  % Inhibition (antagonist effect) of control agonist response, NK1 (h): negligible
  % Stimulation (agonist effect) of control agonist response, NK1 (h): −1.70 ± 0.14%
  inhibition at 100 µM: 20.5%

## COc1c(O[C@@H]2O[C@H](CO)[C@@H](O)[C@H](O)[C@H]2O)cc2c(c1O)C(=O)c1c(cc(C)c(O)c1OC)C2=O [gluco-aurantio-obtusin]
[7]
  IC50: 30.24 ± 0.2 µM

## COc1cc(OC2OC(COC3OC(CO)C(O)C(O)C3O)C(O)C(O)C2O)c2c(O)c3c(=O)cc(C)oc3cc2c1 (stereo not drawn) [Rubrofusarin Gentiobioside, Rubrofusarin 6-O-β-gentiobioside]
[4]; [8]
  % Inhibition (antagonist effect) of control agonist response, V1A (h): negligible
[4]; 100 µM test compound
  % Stimulation (agonist effect) of control agonist response, V1A (h): −4.40 ± 1.41%
[4]; [9]
  inhibition at 100 µM: -13.6%
[5]
  % Stimulation (agonist effect) of control agonist response, D3 (h): 7.05 ± 1.63%
  inhibition at 100 µM: -0.05%
[6]
  % Inhibition (antagonist effect) of control agonist response, 5-HT1A (h): negligible
  % Stimulation (agonist effect) of control agonist response, 5-HT1A (h): −0.30 ± 0.28%
  inhibition at 100 µM: 4.25%
[3]
  % Inhibition (antagonist effect) of control agonist response, NK1 (h): negligible
  % Stimulation (agonist effect) of control agonist response, NK1 (h): −1.40 ± 0.42%
  inhibition at 100 µM: 3.9%

## COc1c(O)c(C)cc2c1C(=O)c1c(O)cc(O)cc1C2=O [2-Hydroxyemodin 1-methylether]
[4]; CHO, 12.5 µM, control response to 10 nM AVP, read-out: V1AR antagonist effect, % inhibition
  inhibition at 12.5 µM: 23.1%
[4]; CHO, 25 µM, control response to 10 nM AVP, read-out: V1AR antagonist effect, % inhibition
  inhibition at 25 µM: 26.5%
[4]; CHO, 50 µM, control response to 10 nM AVP, read-out: V1AR antagonist effect, % inhibition
  inhibition at 50 µM: 36.6%
[4]; CHO, 100 µM test compound, control response to 10 nM AVP, read-out: % Inhibition (antagonist effect) of control agonist response, V1A (h) (converted)
  inhibition at 100 µM: 42.3%

## Cc1cc(O)c2c(c1)C(=O)c1cc(O)cc(O)c1C2=O [emodin]
[1]
  Activity on vasopressin receptors: showed activity
[2]
  Activity on dopamine receptors: showed activity
